Data from a melting point compilation (Tetko et al.; mined from patent text by program, amines drawn as free bases though some values may be those of a salt).

| Structure (SMILES) | melting point |
| --- | --- |
| CCN(CC)CCCOc1ccc(C(O)(CC)c2cccc(C(F)(F)F)c2)cc1 (centres undefined) | 44 to 46 °C |
| CC(=O)C(C(=O)NS(=O)(=O)c1ccc(C)cc1)C(=O)c1ccccc1 (centres undefined) | 114 to 116 °C |
| COC(=O)CCc1c(C=O)ccc2c1CCC(NS(=O)(=O)c1ccc(Cl)cc1)C2 (centres undefined) | 110 °C |
| CC(C)S(=O)(=O)N1C[C@@H](c2c[nH]c3ccccc23)[C@H](c2cn3c4c(cccc24)CCC3)C1 | 100 to 115 °C |
| CNC(=O)C(=C/c1ccccc1)/C(=C\c1cc(OC)c(OC)c(OC)c1)C(=O)OC | 155 to 157 °C |
| COc1ccc(C2CC(=O)N(C(N)=O)N2Cc2ccccc2)cc1OC1CCCC1 (centres undefined) | 148 to 149 °C |
| Cc1cc(NC(=O)C(C)(O)COc2ccc(OCCBr)cc2)ccc1[N+](=O)[O-] (centres undefined) | 135 to 138 °C |
| O=c1[nH][nH]c(=O)c2c(O)c3ccc(F)cc3nc12 | 228 °C |
| O=S(=O)(NCCCO)c1c(Cl)cc(Cl)cc1Cl | 104 to 106 °C |
| CCOC(=O)C=Cc1ccc(NCCOC)cc1 | 49.9 to 53.4 °C |
| CC(C)c1ccc(NC(=O)Oc2ccc3c(c2)CCN3Cc2ccccc2)cc1 | 145 to 150 °C |
| O=S1(=O)NC(C2CCCCC2)Nc2c(Br)cc(Br)cc21 (centres undefined) | 166 to 167 °C |
| C=CCNC(=O)CCCC(=O)O | 35.1 °C |
| CNC(=O)c1c(NC(=O)CCl)c(OC)c(C(=O)NC)c([N+](=O)[O-])c1OC | 259 to 260 °C |
| Fc1cc2c(c(-c3c(Cl)cccc3Cl)c1)OC(CNC1CCC1)C2 (centres undefined) | 128 to 130 °C |
| CCc1nc2cc(Nc3nccc(-c4ccc(N5CCNCC5)nc4)n3)ccc2o1 | 156 to 159 °C |
| CCOC1(C(N)=O)c2ccccc2S(=O)(=O)N1Cc1ccc(Br)cc1F (centres undefined) | 175 to 177 °C |
| COC(=O)C=CC1C(C(=O)OC(C)(C)C)C1(C)C (centres undefined) | 67 °C |
| COC(=O)c1cc(F)ccc1Nc1ccnc2cc(C(F)(F)F)ccc12 | 174 °C |
| C=C(CS(C)(=O)=O)C(=O)O | 147 to 149 °C |
| Cc1nc2ccc(C)c(Sc3ccncc3)c2c(=O)[nH]1 | 235 to 238 °C |
| CN(CCOc1ccc(CCO)cc1)c1nc2ccccc2o1 | 95 to 97 °C |
| CS(=O)(=O)Nc1ccccc1OCCCN1CCC(OC(c2ccsc2)c2ccsc2)CC1 | 92 to 94 °C |
| O=C(O)Cc1cccc(Oc2ccccc2F)c1[N+](=O)[O-] | 144 to 146 °C |
| CC(C)C1Sc2ccccc2NC(=O)C1N (centres undefined) | 180 to 183 °C |

| Structure (SMILES) | melting point |
| --- | --- |
| O=c1ccsn1Cc1ccc2c(c1)CCO2 | 100 to 102 °C |
| CCc1nc2c(N)nc3ccccc3c2n1CCCCNS(C)(=O)=O | 198 to 200 °C |
| CCOC(=O)c1cc(C(=O)OCC)c(=O)[nH]c1C | 195 to 197 °C |
| CC(=O)Nc1nc2c(ncn2COCC(COC(C)=O)OC(C)=O)c(=O)[nH]1 (centres undefined) | 162 to 165 °C |
| Cc1cccc2c1C(=O)/C(=C(\N)c1ccccc1)S2 | 198 to 200 °C |
| N=C(N)c1ccc(C(=O)NCCCCC(=O)NC(CC(=O)O)C(=O)NC(Cc2ccccc2)C(=O)O)cc1 (centres undefined) | 169 to 171 °C |
| CC(C)(C)OC(=O)c1nn(-c2ccc(F)cc2F)c2c1C1CCC2C1 (centres undefined) | 97 to 99 °C |
| Cc1nc2c(s1)-c1nc(Nc3cccc([N+](=O)[O-])c3)ncc1CC2 | 227 to 228 °C |
| NCC1C[N+]([O-])=C(c2ccccc2F)c2cc(Cl)ccc2N1 (centres undefined) | 144 to 148 °C |
| CCc1noc(-c2cc3c(-c4cccs4)nccc3[nH]c2=O)n1 | 265 to 268 °C |
| CCC1CCCCn2c1nc(-c1ccncn1)cc2=O (racemic) | 128 to 130 °C |
| CC(C)Cn1c(CN)c(-c2ccccc2)c2cc(Br)ccc2c1=O | 129 to 130 °C |
| Nc1ccc(-c2noc(-c3cnn4c(C(F)(F)F)cc(-c5cccc(C(F)(F)F)c5)nc34)n2)cn1 | 264 °C |
| CCOC(=O)c1ncc(Cl)cc1NC(C)=O | 98 to 100 °C |
| CCOC(=O)c1cc(C(=O)O)nc2cc(Cl)cc(Cl)c12 | 152 to 154 °C |
| O=C1C=C(CCCCC#CCCCC#CCO)C(=O)c2ccccc21 | 88 to 89.5 °C |
| CN1C(=O)[C@@H](NC(=O)OC(C)(C)C)COc2ccccc21 | 152 °C |
| C=C(C)Sc1oc2cc(OC)ccc2c(=O)c1-c1ccccc1 | 117 to 118 °C |
| Nc1nc(NC2Cc3ccccc3C2)nc2c1ncn2C1OC(CO)C(O)C1O (centres undefined) | 129 to 132 °C |
| COc1nc(C)cnc1NS(=O)(=O)c1cccnc1-c1ccc(C(C)(C)C)cc1 | 150 to 151 °C |
| CN1CCN(c2cc3nc(C(C)(C)C)sc3cc2NC(=S)N2CCCCC2)CC1 | 202 to 206 °C |
| Cc1c(NC(=O)c2ccc(OCC3CCOC3)cc2)ccc2cc(CNC(C)C)cnc12 (centres undefined) | 106 °C |
| CCOC(=O)c1c(CCn2cncn2)nc2sc3c(c2c1-c1ccc(OC)c(OC)c1)CCN(C(=O)c1ccc(Cl)cc1)C3 | 195 to 197 °C |
| COc1ccc(OC)n2nc(N)nc12 | 223 to 234 °C |
| COC(=O)c1nc2nc(C)c(C)c(S)n2n1 | 206 to 207 °C |

| Structure (SMILES) | melting point |
| --- | --- |
| N#Cc1nn(-c2c(Cl)cc(Cl)cc2Cl)cc1C1CC1(Cl)Cl (centres undefined) | 158 °C |
| CN(C(=O)OC(C)(C)C)c1cc(Oc2ccc(Cc3ccccc3)cc2)ccc1N | 114 to 115 °C |
| COC(C)(CC(=O)Nc1cccc(OCc2ccccc2)c1)OC | 83 °C |
| O=C1Nc2ccc(F)cc2C1c1ncnc2nn(C3CCCCC3)cc12 (centres undefined) | 294 to 298 °C |
| Cc1cc2c(cc1OC(=S)N(C)C)C(C)(C)CCC2(C)C | 102 to 103 °C |
| C=C1C(=O)c2ccccc2OC1c1ccc([N+](=O)[O-])cc1 (centres undefined) | 135 to 136 °C |
| O=C(CC(F)=C(F)F)NS(=O)(=O)C(F)(F)F | 115 to 120 °C |
| CC(c1ccc2c(c1)Sc1ccccc1CC2)N(O)C(N)=O (centres undefined) | 166 to 168 °C |
| Clc1ccc(-c2cn3ccccc3n2)c(Cl)c1 | 174 to 177 °C |
| CCOCc1nc2c(N)nc3ccccc3c2n1CCOCC#Cc1ccccc1 | 111 to 112 °C |
| O=C(Nc1ccc(C(=O)Nc2ccc(Cl)cc2)c(O)c1)c1ccc(-c2nc3cc(Cl)c(Cl)cc3[nH]2)cc1 | > 220 °C |
| Clc1ccc2c(C3=CCN(CCNc4ccccn4)CC3)c[nH]c2c1 | 217 to 219 °C |
| CCCCCCN(CCCCCC)c1ccc(C2=C(C#N)C(=C(C#N)C#N)OC2(C)C)s1 | 134 °C |
| COC(=O)c1ccc(S(C)(=O)=O)c(C=O)c1C | 108 to 110 °C |
| O=C1NCC(=O)c2c(ncn2C2OC(COC(=O)c3ccccc3)C(OC(=O)c3ccccc3)C2OC(=O)c2ccccc2)N1 (centres undefined) | 239 °C |
| CC(C)C[C@H](NC(=O)C1(N)CCCCC1)C(=O)NCC(N)=O | 136 to 147 °C |
| O=C1CCCc2c(-c3ccccc3)[nH]c(-c3ccncc3)c21 | 254 to 255 °C |
| COc1ccc(C(C)(O)Cc2ccncc2)cc1OC1CCCC1 (centres undefined) | 99 to 101 °C |
| O=C1c2nccc([N+](=O)[O-])c2-c2nc3ccccc3c3ccnc1c23 | > 260 °C |
| CCCCCCCCCCCCNC(=S)NCCCC | 49 to 55 °C |
| CCCCc1nn(-c2cc([N+](=O)[O-])ccc2Br)c(=O)n1Cc1ccc(-c2ccccc2S(=O)(=O)NC(C)(C)C)cc1 | 126 to 128 °C |
| Cc1cc(C)nc(NC(=O)NS(=O)(=O)c2ccccc2C(=O)O)n1 | 160 °C |
| N#CN=CNC1c2ccccc2CC2CCCCC21 (centres undefined) | 145 to 165 °C |
| COc1cc(C(=N)N)ccc1OCc1ccc(CN2C(=O)c3ccccc3C2=O)cc1 | 228 to 230 °C |
| COc1ccc(N2CC(O)c3cc(Cl)sc3S2(=O)=O)cc1 (centres undefined) | 127 to 132 °C |

| Structure (SMILES) | melting point |
| --- | --- |
| CC(=S)NC[C@H]1CN(c2ccc3c(c2)CCCc2cnoc2-3)C(=O)O1 | 185 to 195 °C |
| O=C(c1cn(Cc2ccccc2Cl)nn1)N1CCCCC1 | 141 to 142 °C |
| CC(=O)Nc1ccccc1C(=O)N1CC2CC2(c2ccccc2)C1 (centres undefined) | 124 to 127 °C |
| CC(=O)c1cc(Cl)sc1S(=O)(=O)Nc1ccc(CCO)cc1 | 112 to 116 °C |
| C#CCNC(=O)N1CC(c2cccc(C(F)(F)F)c2)C1 | 121 °C |
| Nc1cccc2cc(C(=O)O)ccc12 | 231 to 234 °C |
| O=C(O)COc1c(-c2cccc(C(F)(F)F)c2)cc(C(=O)NCCCCCCOCc2ccc(OCc3ccccc3)cc2)cc1-c1cccc(C(F)(F)F)c1 | 127 to 130 °C |
| O=CNc1ccccc1C(=O)Nc1nnn[nH]1 | 247 to 248 °C |
| CCNC1CN(c2cc3c(cc2F)c(=O)c(C(=O)O)cn3C2CC2)C1 | 220 to 224 °C |
| CN(C)c1cc(NC(=O)c2ccccc2-c2ccc(C(F)(F)F)cc2)cnc1OCCCC1(C(=O)NCC(F)(F)F)c2ccccc2-c2ccccc21 | 140 to 141 °C |
| Cc1ccc(C(=O)N(CCCNC(=O)OC(C)(C)C)C(c2nc3snc(C)c3c(=O)n2Cc2ccccc2)C(C)C)cc1 (centres undefined) | 70 to 71 °C |
| CCN(CC)Cc1cc(/C=C/C(=O)Nc2ccccc2C(=O)O)ccc1OC | 202 to 205 °C |
| CC1CN(c2n[nH]c(-c3ccc(Cl)cc3)c2-c2ccncc2)CCN1 (centres undefined) | 235 to 237 °C |
| CCCc1c(OCc2cccc(OCc3ccc4ccccc4n3)c2)ccc2c(=O)cc(C(=O)O)oc12 | 218 to 222 °C |
| Oc1ccccc1-c1ccncc1 | 218 to 220 °C |
| O=C(O)C(Cc1ccccc1)Cn1ccnc1 (racemic) | 159 to 163 °C |
| CCOC(=O)/C=C/c1ccc(Br)nc1 | 79 to 80 °C |
| Cc1c(CCN(C)C(=O)OC(C)(C)C)c2cc(S(=O)(=O)c3cccc4ccccc34)ccc2n1C | 176 to 178 °C |
| CCCCCCC(=O)Nc1ccn(C2OC(CO)C(O)C2O)c(=O)n1 (centres undefined) | 131 to 136 °C |
| Cc1cccc(NC(=O)NCC(=O)N(CC(=O)N(C)c2ccc(F)c(F)c2)c2ccccc2)c1 | 163 °C |
| Oc1ccccc1C=NC1=NN(c2cccc(C(F)(F)F)c2)CC1 | 156 °C |
| O=C(C=Cc1cc(O)c(O)c([N+](=O)[O-])c1)c1ccccc1 | 192 to 195 °C |
| O=C1C[C@H]2CN(C(=O)c3ccc(NC(=O)c4ccccc4-c4ccccc4)cc3)c3ccccc3C(=O)N2C1 | 159 to 169 °C |
| CCCn1c(SC)nc2cc(Br)sc2c1=O | 138 to 141 °C |
